# Reference: US5231216A, “Trans-2-acylaminocyclohexyloxyacyldipeptides in the form of mixtures of diastereoisomers thereof and in the form of pure diasteredisomers, process for the preparation thereof and pharmaceutical compositions containing the same” (Univerza Edvarda Kardelja v Ljubljana, priority 1990, dated 1993)
# Read-outs that look alike come from different tables or passages of the source.
# What was measured:
# [1] = system: peritoneal macrophages; assay: Determination of the number of macrophages in peritoneal cavity washings; format: in vivo, female HAN-NmRI strain mice; conditions: daily doses 25, 2.5 and 0.25 μg on 3 days; after Brewer's thioglycolate stimulation
# Procedure: (§1) Immunological studies were performed on female HAN-NmRI strain mice of 3-4 weeks, weighing from 17-20 g.
# (§2) In tests 1.1 to 1.5, the animals were first administered the Brewer's thioglycolate medium by i.p. injection, which was followed after 6 hours by the injection of 0.5 ml of a solution containing 25 μg, 2.5 μg and 0.25 μg respectively of N-acetyl-muramyl-L-alanyl-D-isoglutamine (muramyl dipeptide, MDP) or of N-[trans-2-(2'-acetylaminocyclohexyloxy)acetyl]-L-alanyl-D-glutaminic acid (compound 1, Example 12B). Equal doses were administered to the animals on days 2 and 3. On day 4 the animals were sacrificed and the spleen and the peritoneal macrophages were isolated.
# The number of macrophages in the peritoneal cavity washings was determined three days after the stimulation with Brewer's thioglycolate medium. The cells were suspended in ice-cold RPMI 1640 medium, to which trypan blue was added, and counted in Neubauer's chamber.
# [2] = system: peritoneal macrophages; assay: Activation of peritoneal macrophages (ferricytochrome C reduction) without additional PMA stimulation; format: in vivo, female HAN-NmRI strain mice; conditions: for Difference in absorbancies of the test sample and of the blank per mg of cell protein, x ± s.e.m (n): control 275 ± 26
# Procedure: as §1, §2
# (§3) The peritoneal cavity of the animals was rinsed with 4 ml of ice-cold RPMI 1640 medium. The cytolysis of erythrocytes was effected with 0.2% NaCl. The remaining cells were washed twice in a cooled centrifuge at 4° and 1500 rpm for 5 minutes with ice-cold RPMI 1640 medium. The cells were re-suspended and the concentration was adjusted to 1.5×10^6 /ml. The cell suspension was distributed among the flat bottom wells of a microtitration palte (T grade, Nunc, Denmark). After incubating for 2 hours at 37° C., 5% CO2 and 95% humidity, the wells were rinsed with warm RPMI 1640 medium and the adhering macrophages were used for testing.
# (§4) After incubating for 90 minutes at 37° C., 5% CO2 and 95% humidity, the absorbance was measured at the wavelength of 570 nm.
# (§5) The results are shown in Table 2 as the difference in the absorbance of the test sample and of the blank, calculated for 1 mg of cell protein.
# [3] = Pyrogenous activity according to USP XXII; format: in vivo; conditions: method of USP XXII
# Procedure: The pyrogenous activity was determined according to the method of USP XXII.
# [4] = system: peritoneal macrophages; assay: Activation of peritoneal macrophages (ferricytochrome C reduction) with additional in vitro PMA stimulation; format: in vivo, female HAN-NmRI strain mice; conditions: for Difference in absorbancies of the test sample and of the blank per mg of cell protein, x ± s.e.m (n): control 1004 ± 38
# Procedure: as §1, §2, §3, §4, §5
# [5] = system: Fibrosarcoma SA-1; conditions: for Time needed for the tumour growth to the volume of 150 mm^3, Number of days (± SD) / Growth delay (± SD): 5 doses; for Time needed for the tumour growth to the volume of 150 mm^3, Number of days (± SD): control 5.5 ± 0.8
# Procedure: The studies were performed on A/J strain mice (Institute Rudjer Boskovic, Zagreb, Yugoslavia) of 8 to 10 weeks. All animals used in the same experiment were of the same sex and age.
# Fibrosarcoma SA-1 was used as the experimental tumour model. Tumorous cells were obtained from the ascitic form of the SA-1 tumour of the syngeneic A/J mouse. They were implanted into animals dorsilaterally by s.c. injection of 5×10^5 tumour cells. The testing was started after the tumours had grown to a volume of 35 mm^3. The test substance was injected i.p. on five consecutive days in a dose of 2.5 or 25 μg. The growth of the tumours was monitored by measuring the diameters and the thickness of the tumours. The tumour volumes were calculated according to the formula 0.523×a×b×c (a, b and c being the tumour diameters).
# The delay in the growth of each individual tumour was obtained by deducting the relevant time of growth of the tumour in the control group from the time needed for the growth of the tumour to reach the volume of 150 mm^3.
# [6] = system: splenic lymphocytes T; assay: Determination of the number of lymphocytes T (splenic, fluorescence microscopy); format: in vivo, female HAN-NmRI strain mice; conditions: daily doses 25, 2.5 and 0.25 μg on 3 days; spleen isolated on day 4
# Procedure: as §1, §2
# (§6) To the isolated splenic lymphocytes there were added fluorescein isothiocyanate labelled antimouse antibodies (for the determination of lymphocytes B) and anti-Thy 1 monoclonal antibodies (for the determination of lymphocytes T) respectively. After incubation and rinsing with RPMI 1640 medium (Gibco, Great Britain), the lymphocytes were counted by fluorescence microscopy.
# [7] = system: splenic lymphocytes (lymphocytes T) stimulated with concanavalin A; assay: Blast transformation of lymphocytes stimulated in vitro with concanavalin A after in vivo treatment; parameters: species or system female HAN-NmRI strain mice; conditions: for Amount of active thymidine incoporated in lymphocyte DNA (cpm), x ± s.e.m (n): control 10130 ± 476
# Procedure: as §1, §2
# Isolated splenic lymphocytes were prepared in a concentration of 1×10^6 /ml in the RPMI 1640 medium, to which there were added 10% of foetal calf serum (FCS) (Sera-Lab, Great Britain), 1 ml of 200 mM L-glutamine solution and 1 ml of an antibiotic solution (100 U/ml of penicillin and 100 μg/ml of streptomycin) for 100 ml of complete medium. To each flat bottom well of a microtitration plate (T grade, Nunc, Denmark) 100 μl of the cell suspension were distributed. The cells were stimulated in vitro by adding concanavalin A (con A)(Pharmacia, Sweden) at respective concentrations of 16, 8, and 4 μg/ml. Control lymphocyte cultures were grown in basal medium only. The cells were then incubated at 37° C., 5% CO2 and 95% humidity for 2 days, followed by the addition of tritium labelled thymidine. After 16 hours the samples were prepared for the measurement in a β-counter. The results were expressed as incorporation indexes with respect to the control group of the animals.
# [8] = Toxicity, average lethal dose (LD50); format: in vivo; conditions: i.v. application, male mice
# Procedure: The average lethal dose (LD50) at i.v. application of the compound 1 in male mice was >500 mg/kg.
# [9] = system: lymphocytes B; assay: Determination of haemolytic plaques for the assessment of the maturation of lymphocytes B; format: in vivo, female HAN-NmRI strain mice; conditions: evaluation summary
# Procedure: as §1
# A 1% suspension of sheep erythrocytes (Institute of Microbiology, Faculty of Medicine, Ljubljana, Yugoslavia) in physiological saline was used for the immunisation. First, individual mice were administered 0.2 ml of this suspension by i.p. injection, followed next day by 0.1 ml (1 μg/mouse) of the test substance. The immunisation was completed on the fifth day after the administration of sheep erythrocytes and the mice were sacrificed.
# Their spleens were removed and homogenized in Parker 199 Medium with added aminoacids, streptomycin and sodium carbonate (Torlak, Beograd, Yugoslavia). The lymphocytes were separated on the Ficol Separating Medium (Pharmacia, Uppsala, Sweden). After repeated rinsing with Parker 199 Medium, the cells were resuspended in RPMI 1640 nutrient medium with added 10% of foetal calf serum and streptomycin. To 50 μl of the cell suspension, 450 μl of trypan blue were added and the cells were counted in Neubauer's chamber. The number of lymphocytes per ml of the cell suspension was calculated. […] After the completion of the incubation, the plaques were counted under microscope.
# The number of plaques per 1×10^6 cells was calculated according to the following equations: [formula]
# [10] = system: splenic lymphocytes B; assay: Determination of the number of lymphocytes B (splenic, fluorescence microscopy); format: in vivo, female HAN-NmRI strain mice; conditions: daily doses 25, 2.5 and 0.25 μg on 3 days; spleen isolated on day 4
# Procedure: as §1, §2, §6
# [11] = daily dose 0.25 μg for 3 consecutive days
# [12] = daily dose 2.5 μg for 3 consecutive days
# [13] = daily dose 25 μg for 3 consecutive days
compound,measurement,setting,value
"CC(=O)N[C@@H]1CCCC[C@H]1OCC(=O)N[C@@H](C)C(=O)N[C@H](CCC(=O)O)C(=O)O (relative stereo) [Compound 1, N-[trans-2-(2'-acetylaminocyclohexyloxy)acetyl]-L-alanyl-D-glutaminic acid]",number of peritoneal macrophages,[1],not altered to a statistically significant extent
same,"Difference in absorbancies of the test sample and of the blank per mg of cell protein, x ± s.e.m (n)",[2]; daily dose 0.25 μg,237 ± 94
same,"Difference in absorbancies of the test sample and of the blank per mg of cell protein, x ± s.e.m (n)",[2]; daily dose 2.5 μg,431 ± 85
same,"Difference in absorbancies of the test sample and of the blank per mg of cell protein, x ± s.e.m (n)",[2]; daily dose 25 μg,489 ± 97
same,increase of macrophage activity,"[2]; dose 2.5 μg, p<0.06",55%
same,difference in macrophage activation between muramyl dipeptide and compound 1,[2]; dose 25 μg,no statistically significant different
same,increase of macrophage activity,"[2]; dose 25 μg, p<0.05",70%
same,pyrogenous activity,[3],did not show any pyrogenous activity
same,"Difference in absorbancies of the test sample and of the blank per mg of cell protein, x ± s.e.m (n)",[4]; [11],1298 ± 334
same,"Difference in absorbancies of the test sample and of the blank per mg of cell protein, x ± s.e.m (n)",[4]; [12],1494 ± 199
same,"Difference in absorbancies of the test sample and of the blank per mg of cell protein, x ± s.e.m (n)",[4]; [13],1709 ± 374
same,increase of macrophage activity,"[4]; dose 2.5 μg, p<0.05",50%
same,difference in macrophage activation between muramyl dipeptide and compound 1,[4]; dose 25 μg,no statistically significant different
same,increase of macrophage activity,[4]; dose 25 μg,70%
same,"Time needed for the tumour growth to the volume of 150 mm^3, Number of days (± SD)",[5]; 2.5 μg daily i.p.,6.4 ± 0.9 days
same,Growth delay (± SD),"[5]; 2.5 μg daily i.p., p<0.2 compared with control",0.9 ± 0.4
same,"Time needed for the tumour growth to the volume of 150 mm^3, Number of days (± SD)",[5]; 25.0 μg daily i.p.,7.3 ± 1.3 days
same,Growth delay (± SD),"[5]; 25.0 μg daily i.p., p<0.002 compared with control",1.8 ± 0.4
same,difference in antitumour activity between the higher and the lower dose,[5]; 25 μg versus 2.5 μg,no statistically significant difference in activity between the higher and the lower dose
same,delay in tumour growth in combination with tumour necrosis factor,[5]; compound 1 2.5 μg combined with recombinant tumour necrosis factor α (5×10^5 U),increased delay in tumour growth
same,antitumour activity in comparison to the control,"[5]; dose 25 μg, p<0.002",moderate and statistically significant
same,number of splenic lymphocytes T,[6],Neither the number of splenic lymphocites B nor of lymphocytes T was altered to a statistically significant extent
same,"Amount of active thymidine incoporated in lymphocyte DNA (cpm), x ± s.e.m (n)",[7]; [11],10780 ± 2680 cpm
same,"Amount of active thymidine incoporated in lymphocyte DNA (cpm), x ± s.e.m (n)",[7]; [12],16830 ± 6610 cpm
same,"Amount of active thymidine incoporated in lymphocyte DNA (cpm), x ± s.e.m (n)",[7]; [13],25990 ± 7850 cpm
same,immunomodulatory effect in lymphocytes T compared with MDP,[7]; dose 25 μg,statistically greater (p<0.05) immunomodulatory effect
same,increase of the blastic activity of lymphocytes T,"[7]; dose 25 μg, p<0.05, versus control",about 150%
same,average lethal dose (LD50),[8],> 500 mg/kg
same,maturation of lymphocytes B to plasma cells,[9],enhances the muturation of lymphocytes B to plasma cells
same,number of splenic lymphocytes B,[10],Neither the number of splenic lymphocites B nor of lymphocytes T was altered to a statistically significant extent
